# Assay results published in patent US20160326547A1, “TRANSGENIC PRODUCTION OF HEPARIN” (LFB USA, INC., priority 2013, published 2016).
# Entries after “also recorded” stand apart in the source; their conditions may differ.
# Legend:
# lactating goats [1] = assay: Experiment 1: systemic (intravenous) administration of heparin, toxicity study in lactating goats; assay type: in vivo, goat
# Method: (§1) A study was conducted to determine if the production of heparin in the mammary gland would also have a significant effect on the producing animal. The protein produced by the transgene can potentially affect the mammary gland directly. In addition, it is known that there is potential leakage of the protein into the systemic system. To assess the potential effects of systemic and infused heparin on the goat, the study outlined below was performed. Blood was drawn and milk collected from each milking animal at least once daily during two experiments to determine the effects of heparin administration relative to systemic and udder infusion routes. The levels of heparin, and clotting times as indicated by aPTT were calculated from blood serum. Milk volumes were measured and heparin levels in the milk were determined. In addition, the quality of the milk (color, consistency, evidence of clumping, blood, or mastitis) was noted. The general health of each animal was assessed daily, including a rectal temperature. Since heparin is an anticoagulant, animals were also inspected daily for any gross signs of bleeding, such as abnormal bruising or petechiae. Six normal, non-transgenic, lactating goats were fed approximately four pounds of specially formulated vegetarian goat feed, per day, and given a combination of timothy and alfalfa hay as well as free access to water and plain and mineralized salt blocks. As these were lactating animals, they were milked daily starting on the day they arrived. The milk volume was measured each day and a rectal temperature recorded Milk volumes and rectal temperatures prior to the first or second experiment can be seen below in Table 7. Animals were manually restrained so that the jugular vein could be identified. A 21-gauge ¾ inch butterfly needle (BD Vacutainer Blood Collection Set Ref 367251, Franklin Lakes, N.J. USA) was inserted into the vessel, and the blood was collected into 2-1.8 ml sodium citrate vacutainer tubes (BD Vacutainer, Buffered Na Citrate, Franklin Lakes, N.J. USA). After collection (or after blood collection and heparin administration—see below) the needle was removed, and pressure was applied at the collection site to stop any bleeding. The animal received positive reinforcement (grain reward) after each procedure. The animals were restrained as above. The butterfly needle used for blood collection described above is designed so that blood can be collected via a vacutainer blood collection tube, or a syringe can be attached. Thus, after blood collection, the part of the needle that connects with the blood collection tube was removed, and a syringe with heparin was attached and the heparin was slowly injected. An additional 0.4 ml of sterile normal saline was flushed through the needle to ensure that all heparin was delivered. In this way a single needle placement was used for both blood collection and heparin injection, and any additional stress relative to a second venipuncture site was avoided. All goats were milked using a portable milking machine, once every day starting the day the goats arrived. Animals were placed on a milking stand for this procedure. The general protocol for milking was as follows. Personnel doing the milking washed their hands thoroughly and donned latex examination gloves. The udder was cleaned using paper towels and water. The udder was then dried using clean paper towels. […]
# lactating goats [2] = assay: Experiment 2: udder infusion of heparin, toxicity study in lactating goats; assay type: in vivo, goat
# Method: as §1, with “procedure.” for “procedure. The animals were restrained as above. The butterfly needle used for blood collection described above is designed so that blood can be collected via a vacutainer blood collection tube, or a syringe can be attached. Thus, after blood collection, the part of the needle that connects with the blood collection tube was removed, and a syringe with heparin was attached and the heparin was slowly injected. An additional 0.4 ml of sterile normal saline was flushed through the needle to ensure that all heparin was delivered. In this way a single needle placement was used for both blood collection and heparin injection, and any additional stress relative to a second venipuncture site was avoided.”, “towels. The teat was cleaned again using alcohol wipes, and pre-dip (FS-106 Sanitizing Teat Dip, IBA Inc., Millbury, Mass. USA) was applied and allowed to dry. A small sample was expressed from the teat by hand to assess milk quality, perform a streak test, and to be frozen for further analysis. The milking machine was then attached to the udder. After milking, the teats were cleaned with alcohol, and post milking disinfectant was applied (Ultra Shield Sanitizing Barrier Teat Dip, IBA Inc., Millbury, Mass. USA). The volume of milk was determined, and the small sample was frozen and stored in a −80° C. chest freezer for subsequent testing. The six milking goats were divided into 3 groups of 2 goats. All goats were milked daily with a milking machine, and had blood samples taken. After milking and blood collection, goats had their udders infused with heparin using a teat infusion cannula (Udder Infusion Cannula, IBA Inc., Millbury, Mass. USA). Each group received either a low (25,000 Units), medium (100,000 Units), or high (500,000 Units) dose of infused heparin, equivalent to the 3 different expression levels being explored on a per liter of milk basis. Volumes infused were less than 50 ml per udder. This protocol was performed for a total of seven days.” for “towels.”
# [3] = Medium dose udder infusion (100,000 units per liter), Animal 4, days 1-8, day 1
# [4] = Medium dose udder infusion (100,000 units per liter), Animal 4, days 1-8, day 2
# [5] = Medium dose udder infusion (100,000 units per liter), Animal 4, days 1-8, day 3
# [6] = Medium dose udder infusion (100,000 units per liter), Animal 4, days 1-8, day 4
# [7] = Medium dose udder infusion (100,000 units per liter), Animal 4, days 1-8, day 5
# [8] = Medium dose udder infusion (100,000 units per liter), Animal 4, days 1-8, day 6
# [9] = Medium dose udder infusion (100,000 units per liter), Animal 4, days 1-8, day 7
# [10] = goat infused with the highest levels
# [11] = udder infusion, low or medium dose for a week
substance,measurement,setting,value
heparin,aPTT,"lactating goats [1]; High dose (31,000 Units IV TID), noon and 4 PM samples, above instrument maximum",> 124 s
same,aPTT overnight between the two high doses,"lactating goats [1]; High dose IV, second High AM sample prior to AM dose",low 40's; also recorded: dropped to more normal levels overnight
same,Lung sounds,"lactating goats [1]; High dose IV, second day, noon and 4 PM examinations",increase in lung sounds in one animal
same,Petechiae or abnormal bleeding,"lactating goats [1]; IV heparin over 6 days, any dose",no obvious gross signs of bleeding; also recorded: no evidence of petechiae or abnormal bleeding
same,Milk volumes and body temperatures,lactating goats [1]; any IV dose,"little, if any, effect; also recorded: not affected"
same,Milk volume,"lactating goats [2]; Low dose udder infusion (25,000 units/liter), Animal 1, days 1-8 (daily infusion days 1-7), day 1",2.25 L
same,Milk volume,"lactating goats [2]; Low dose udder infusion (25,000 units/liter), Animal 1, days 1-8 (daily infusion days 1-7), day 3",2.2 L
same,Milk volume,"lactating goats [2]; Low dose udder infusion (25,000 units/liter), Animal 1, days 1-8 (daily infusion days 1-7), day 4",2.0 L
same,Milk volume,"lactating goats [2]; Low dose udder infusion (25,000 units/liter), Animal 1, days 1-8 (daily infusion days 1-7), day 5",1.9 L
same,Milk volume,"lactating goats [2]; Low dose udder infusion (25,000 units/liter), Animal 1, days 1-8 (daily infusion days 1-7), day 6",1.8 L
same,Milk volume,"lactating goats [2]; Low dose udder infusion (25,000 units/liter), Animal 1, days 1-8 (daily infusion days 1-7), day 7",1.7 L
same,aPTT time,"lactating goats [2]; Low dose udder infusion (25,000 units/liter), Animal 1, days 1-8, day 1",23.2 s
same,aPTT time,"lactating goats [2]; Low dose udder infusion (25,000 units/liter), Animal 1, days 1-8, day 2",36 s
same,aPTT time,"lactating goats [2]; Low dose udder infusion (25,000 units/liter), Animal 1, days 1-8, day 3",37 s
same,aPTT time,"lactating goats [2]; Low dose udder infusion (25,000 units/liter), Animal 1, days 1-8, day 4",34.9 s
same,aPTT time,"lactating goats [2]; Low dose udder infusion (25,000 units/liter), Animal 1, days 1-8, day 5",34.5 s
same,aPTT time,"lactating goats [2]; Low dose udder infusion (25,000 units/liter), Animal 1, days 1-8, day 6",34.6 s
same,aPTT time,"lactating goats [2]; Low dose udder infusion (25,000 units/liter), Animal 1, days 1-8, day 7",33.5 s
same,aPTT time,"lactating goats [2]; Low dose udder infusion (25,000 units/liter), Animal 1, days 1-8, day 8",33.1 s
same,Milk volume,"lactating goats [2]; Medium dose udder infusion (100,000 units per liter), Animal 2, days 1-8, day 1",2 L
same,Milk volume,"lactating goats [2]; Medium dose udder infusion (100,000 units per liter), Animal 2, days 1-8, day 2",1.35 L
same,Milk volume,"lactating goats [2]; Medium dose udder infusion (100,000 units per liter), Animal 2, days 1-8, day 3",1.5 L
same,Milk volume,"lactating goats [2]; Medium dose udder infusion (100,000 units per liter), Animal 2, days 1-8, day 4",1.6 L
same,Milk volume,"lactating goats [2]; Medium dose udder infusion (100,000 units per liter), Animal 2, days 1-8, day 5",1.3 L
same,Milk volume,"lactating goats [2]; Medium dose udder infusion (100,000 units per liter), Animal 2, days 1-8, day 6",1.2 L
same,Milk volume,"lactating goats [2]; Medium dose udder infusion (100,000 units per liter), Animal 2, days 1-8, day 7",1.25 L
same,Milk volume,"lactating goats [2]; Medium dose udder infusion (100,000 units per liter), Animal 2, days 1-8, day 8",1.75 L
same,Milk volume,lactating goats [2]; [3],3.25 L
same,aPTT time,lactating goats [2]; [3],24.7 s
same,Milk volume,lactating goats [2]; [4],2.75 L
same,aPTT time,lactating goats [2]; [4],32.7 s
same,Milk volume,lactating goats [2]; [5],2.5 L
same,aPTT time,lactating goats [2]; [5],44 s
same,Milk volume,lactating goats [2]; [6],1.9 L
same,aPTT time,lactating goats [2]; [6],30.2 s
same,Milk volume,lactating goats [2]; [7],2.2 L
same,aPTT time,lactating goats [2]; [7],42.4 s
same,Milk volume,lactating goats [2]; [8],2.0 L
same,aPTT time,lactating goats [2]; [8],42.1 s
same,Milk volume,lactating goats [2]; [9],2.25 L
same,aPTT time,lactating goats [2]; [9],22.9 s
same,aPTT time,"lactating goats [2]; Medium dose udder infusion (100,000 units per liter), Animal 4, days 1-8, day 8",29.8 s
same,Milk volume during heparin infusion into the udder,lactating goats [2]; all infusion levels,initial drop in milk volume
same,Milk production,lactating goats [2]; [10],dramatic decrease in milk production
same,Udder response,lactating goats [2]; [10],inflammatory response
same,aPTT,lactating goats [2]; high levels of infused heparin,dramatically increased
same,Goat health and milk production,lactating goats [2]; low and medium doses of systemic and infused heparin (overall conclusion),minimal effects
same,aPTT,lactating goats [2]; single daily udder infusions of low or medium dose for a week,≤ 55 s
same,Systemic effects,lactating goats [2]; udder infusion of the highest levels,high body temperature and increased respiratory sounds
same,Body temperature,lactating goats [2]; [11],little effect
same,Signs of bleeding,lactating goats [2]; [11],did not produce any signs of bleeding
same,aPTT during washout period after heparin udder infusion,lactating goats [2]; washout after udder infusion,20 to 40 s
